# Test results: patent US20240068044A1, “MARKER COMPOSITION FOR PREDICTING PROGNOSIS OF CANCER, METHOD FOR PROGNOSIS OF CANCER AND METHOD FOR PROVIDING INFORMATION FOR DETERMINING STRATEGY OF CANCER TREATMENT” (priority 2021, published 2024)
# System: gastric cancer patients
# Assay: Multivariable Cox proportional analysis of overall survival: adjuvant chemotherapy vs surgery only, Yonsei cohort, within each molecular subtype
# Type: in vivo
# Conditions: multivariate Cox
# Excerpt: It has been examined whether the molecular subtype of the present disclosure may predict the response to the systemic therapy. The Yonsei cohort included patients treated prior to establishment of adjuvant chemotherapy as standard of care. Thus, patients who have been treated with one of the following three assisted chemical therapy methods were able to compare patients who have undergone surgery only:
# 5-Fluorouracil (5-FU) Alone Therapy
# 5-FU and Platinum Doublet
# Treatment of Systemic Therapy of Another Class in Addition to 5-FU
# The inventors of the present disclosure performed a multivariable Cox proportional analysis of the overall survival rate, assisted chemical therapy, cancer operation, age, lymphovascular attack and perineuronal attack as covariates within each genetic group.
# In Table 3, the hazard ratio (HR) was calculated using age, cancer stage, Lauren type, neural surrounding invasion state, and chemotherapy treatment as a regulator.
smiles,measurement,setting,value
"O=c1[nH]cc(F)c(=O)[nH]1 [5-FU alone, 5-Fluorouracil]",Hazard Ratio (95% CI),"Patient Group 1, VS no-chemotherapy","2.25 (0.61, 8.35)"
same,Hazard Ratio (95% CI),"Patient Group 2, VS no-chemotherapy","0.37 (0.14, 0.99)"
same,Hazard Ratio (95% CI),"Patient Group 2, VS no-chemotherapy, listed as 5-FU monotherapy",0.37
same,Hazard Ratio (95% CI),"Patient Group 3, VS no-chemotherapy","0.99 (0.41, 2.38)"
same,Hazard Ratio (95% CI),"Patient Group 4, VS no-chemotherapy","0.73 (0.30, 1.79)"
